# Experimental data from US6043283A, “Tyramine compounds and their neuronal effects” (priority 1997, dated 2000).
# Entries after “also recorded” stand apart in the source; their conditions may differ.
# Tests used:
# [1] = tested on: human microglia stimulated with S5; type: cell-based;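 also: drugs applied at 10 µM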
# [2] = tested on: HEK cells expressing NMDA1b/2A; experiment: NTox killing of HEK cells expressing NMDA receptors, trypan blue; type: cell-based, human; details: 1 nM NTox, 24 hours
# Excerpt: Photomicrograph of trypan blue(+) control HEK cells exposed to NTox. Few blue, dead cells are noted.
# NMDA receptor = experiment: whole cell current elicited by NMDA in Xenopus oocytes injected with NMDA R1 and R2 subunit cRNAs; type: cell-based; details: FIG. 34
# Excerpt: FIG. 34 is a graph shorting the % maximal current peak elicited by NMDA, octopamine and tyramine compounds in the presence of a given NMDA concentration. […].
# The precise mechanism of NTox that leads to the destruction of neurons is only partially characterized. Based upon extensive testing with receptor antagonists, it has been discovered that two classes of neurotransmitter receptors are involved--the n-methyl D-aspartate (NMDA) class of […] receptors and the Muscarinic (M receptors) class of cholinergic receptors. […] […]. Further study to determine if tyramine compounds act upon the NMDA receptor itself involved expression of the NMDA receptor complex in Xenopus oocytes and measurement of ionic fluxes across the oocyte membrane that are elicited by NMDA. […] […]. […] Thus, tyramine compounds appear to have several actions, one of which is upon the NMDA receptor.
# [3] = tested on: Aβ1-42-stimulated microglia; type: cell-based, rat
# Procedure, shortened: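 E18 rat hippocampal cultures, microglia depleted with saporin–ac-LDL (10 μg/ml, 12 h) on day 14, then given test substances at 10μM with or without exogenous microglia (100,000 cells) for 72 h. Neurons immunostained (NF plus MAP-2) and nuclei counted by fluorescence microscopy; survival expressed as % of parallel untreated controls.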
# quinolinic acid (QUIN) = experiment: protection of neurons against quinolinic acid; type: cell-based; details: QUIN (100 μM in FIG. 13)
# Excerpt: (§1) FIG. 32 is a graph showing the specificity of tyramine compounds to NTox. […]
# AMAA = experiment: protection of neurons against AMAA; type: cell-based; details: FIG. 32
# Excerpt: as §1
# NTox = experiment: protection of neurons against isolated NTox applied directly; type: cell-based
smiles,measurement,setting,value
C[C@]12N[C@H](Cc3ccccc31)c1ccccc12 [MK-801],"drug blockade of neuron killing, human microglia",[1],blocked neuron death
same,blocking of NTox killing,[2],could be blocked
same,effect on current elicited by NMDA,NMDA receptor,could be blocked
same,"drug blockade of neuron killing, rat microglia",[3],prevented neuronal loss; also recorded: blocked neuron death
same,protection against quinolinic acid,quinolinic acid (QUIN),prevented from killing neurons
same,protection against AMAA,AMAA,prevented from killing neurons
same,"neuroprotective effects against NTox, concentration range",NTox,~100 nM
same,inhibition of killing action of NTox applied to neurons,"NTox; isolated NTox, FIGS. 13, 32",NTox can be blocked
